Laboratory results reported in PubChem BioAssay (NCI).
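Protocol summary: plate cells (96-well), add compound at 5 concentrations, incubate 48 h, interpolate endpoints linearly. GI50 = concentration required for 50% inhibition of growth. TGI marks complete inhibition of growth.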

Assays:
Experiment in all cases: NCI-60 cell line screen, 48 h
NCI-H23 lung = tested on: NCI-H23 lung
NCI-H460 lung = tested on: NCI-H460 lung
NCI-H522 lung = tested on: NCI-H522 lung
NCI/ADR-RES ovarian = tested on: NCI/ADR-RES ovarian
OVCAR-4 ovarian = tested on: OVCAR-4 ovarian
OVCAR-5 ovarian = tested on: OVCAR-5 ovarian
OVCAR-8 ovarian = tested on: OVCAR-8 ovarian
PC-3 prostate = tested on: PC-3 prostate
RPMI-8226 leukemia = tested on: RPMI-8226 leukemia
RXF 393 renal = tested on: RXF 393 renal
SF-268 CNS = tested on: SF-268 CNS
SF-295 CNS = tested on: SF-295 CNS
SF-539 CNS = tested on: SF-539 CNS
SK-MEL-2 melanoma = tested on: SK-MEL-2 melanoma
SK-MEL-28 melanoma = tested on: SK-MEL-28 melanoma
SK-MEL-5 melanoma = tested on: SK-MEL-5 melanoma
SK-OV-3 ovarian = tested on: SK-OV-3 ovarian
SN12C renal = tested on: SN12C renal
SNB-19 CNS = tested on: SNB-19 CNS
SNB-75 CNS = tested on: SNB-75 CNS
SR leukemia = tested on: SR leukemia
SW-620 colon = tested on: SW-620 colon
T-47D breast = tested on: T-47D breast
TK-10 renal = tested on: TK-10 renal
U251 CNS = tested on: U251 CNS
UACC-257 melanoma = tested on: UACC-257 melanoma
UACC-62 melanoma = tested on: UACC-62 melanoma
UO-31 renal = tested on: UO-31 renal

SMILES: CCCCCCCCNC(=O)c1ccc(Cn2c(CCCC)nc3c(N)nc4ccccc4c32)cc1
- GI50 (NCI-H23 lung): 2860 nM
- TGI (NCI-H23 lung): 12500 nM
- GI50 (NCI-H460 lung): 1940 nM
- TGI (NCI-H460 lung): 3830 nM
- GI50 (NCI-H522 lung): 1890 nM
- TGI (NCI-H522 lung): 4360 nM
- GI50 (NCI/ADR-RES ovarian): 1640 nM
- TGI (NCI/ADR-RES ovarian): 3420 nM
- GI50 (OVCAR-4 ovarian): 1650 nM
- TGI (OVCAR-4 ovarian): 3490 nM
- GI50 (OVCAR-5 ovarian): 3350 nM
- TGI (OVCAR-5 ovarian): 13800 nM
- GI50 (OVCAR-8 ovarian): 2040 nM
- TGI (OVCAR-8 ovarian): 5080 nM
- GI50 (PC-3 prostate): 2550 nM
- TGI (PC-3 prostate): 11500 nM
- GI50 (RPMI-8226 leukemia): 1370 nM
- TGI (RPMI-8226 leukemia): 3310 nM
- GI50 (RXF 393 renal): 1000 nM
- TGI (RXF 393 renal): 2790 nM
- GI50 (SF-268 CNS): 2010 nM
- TGI (SF-268 CNS): 4630 nM
- GI50 (SF-295 CNS): 1590 nM
- TGI (SF-295 CNS): 3190 nM
- GI50 (SF-539 CNS): 1680 nM
- TGI (SF-539 CNS): 3190 nM
- GI50 (SK-MEL-2 melanoma): 1940 nM
- TGI (SK-MEL-2 melanoma): 3940 nM
- GI50 (SK-MEL-28 melanoma): 1630 nM
- TGI (SK-MEL-28 melanoma): 3050 nM
- GI50 (SK-MEL-5 melanoma): 1570 nM
- TGI (SK-MEL-5 melanoma): 2910 nM
- GI50 (SK-OV-3 ovarian): 2640 nM
- TGI (SK-OV-3 ovarian): 7470 nM
- GI50 (SN12C renal): 1920 nM
- TGI (SN12C renal): 4890 nM
- GI50 (SNB-19 CNS): 2800 nM
- TGI (SNB-19 CNS): 10200 nM
- GI50 (SNB-75 CNS): 1720 nM
- TGI (SNB-75 CNS): 4200 nM
- GI50 (SR leukemia): 1580 nM
- TGI (SR leukemia): 5180 nM
- GI50 (SW-620 colon): 1470 nM
- TGI (SW-620 colon): 3200 nM
- GI50 (T-47D breast): 1750 nM
- TGI (T-47D breast): 3950 nM
- GI50 (TK-10 renal): 2200 nM
- TGI (TK-10 renal): 6220 nM
- GI50 (U251 CNS): 1830 nM
- TGI (U251 CNS): 3980 nM
- GI50 (UACC-257 melanoma): 1860 nM
- TGI (UACC-257 melanoma): 3670 nM
- GI50 (UACC-62 melanoma): 1690 nM
- TGI (UACC-62 melanoma): 3290 nM
- GI50 (UO-31 renal): 459 nM
- TGI (UO-31 renal): 3300 nM
